Test results from patent US7555415B2, “Methods for the design of estrogen receptor ligands” (Wyeth, priority 2005, dated 2009).

Experiments:
[1] = system: Adjuvant Induced Arthritis (AIA); assay: Adjuvant-induced arthritis: histological scoring of synovitis in tarsal joints; type: in vivo, Lewis rats; conditions: for Fibroplasia (0-3) / Inflammatory Cells (0-3) / Pannus (0-2) / Synovial Structure (0-3) / Total Synovitis Score (0-10): means ± SD
Experimental: Rats were injected with Complete Freund's Adjuvant (CFA), and synovitis in the tarsal joints was monitored.
(§1) Forty-two male, 8-10 weeks old, Lewis rats were housed according to standard facility operating procedures. They received a standard regimen of food and water ad libitum. Each animal was identified by a cage card indicating the project group and animal number. Each rat number was marked by indelible ink marker on the tail. Freund's Adjuvant-Complete (Sigma Immuno Chemicals, St. Louis, Mo.) was used to induce arthritis. Each mL contained 1 mg Mycobacterium tuberculosis heat killed and dried, 0.85 mL mineral oil and 0.15 mL mannide monooleate (Lot No. 084H8800).
(§2) The rats were injected intradermally with 0.1 mL of Freund's Adjuvant-Complete at the base of the tail. The animals were randomized to […], each group containing six rats. The groups received vehicle (2% Tween 80, 0.5% methylcellulose), or the Compound 2 compound at 1.0 mg/kg, 0.3 mg/kg, or 0.1 mg/kg orally each day. The rats began treatment on Day 8 after adjuvant injection.
(§3) At the end of the study the rats were euthanized with CO2, hindlimbs were removed at necropsy and fixed in 10% buffered formalin, and the tarsal joints were decalcified and embedded in paraffin. Histologic sections were stained with Hemotoxylin and Eosin or Saffranin O-Fast Green stain.
(§4) Slides were coded so that the examiner was blind to the treatment groups. Synovial tissue from tarsal joints were evaluated based on synovial hyperplasia, inflammatory cell infiltration, and pannus formation (see Table 4). Articular cartilage and bone was evaluated using Mankin's histological grading system. Biochemical and metabolic abnormalities in articular cartilage was assessed as from osteoarthritic human hip (see J. Bone Joint Surg (AM) 53A:152-153) (Table 5).

[2] = system: Collagen Induced Arthritis; assay: Collagen induced arthritis model (anti-type II collagen mAbs plus LPS): hind paw edema; type: in vivo; conditions: BALB/c mice, 2.5 mg/kg orally once daily, over the course of the experiment
Experimental: Compound 2 was evaluated in BALB/c mice, 6-8 weeks of age, in which arthritis was induced by monoclonal antibodies raised against type II collagen, plus lipopolysaccharide (LPS). The animals were administered intravenously with a combination of four different mAbs totaling 4 mg/mouse on day 0, and followed by intravenous administration of […] of LPS 72 hours later (day 3). From day 3, one hour after LPS application, tested compounds were given orally once daily for 15 days. For each animal, an increase in volume of both hind paws was measured using a plethysmometer with water cell (12 mm diameter) on days 0, 5, 7, 10, 14 and 17. Percent inhibition of increase in volume was calculated. Reduction of edema in the hind paws by 30% or more was considered significant.

[3] = system: Adjuvant Induced Arthritis (AIA); assay: Adjuvant Induced Arthritis: daily arthritis severity / paw swelling score; type: in vivo, Lewis rats
[4] = system: Adjuvant Induced Arthritis (AIA); assay: Adjuvant-induced arthritis: histological scoring of cartilage changes (Mankin score) in tarsal joints; type: in vivo, Lewis rats; conditions: for Cartilage Cells (0-3) / Cartilage Structure (0-6) / Saffranin-O/Fast Green Staining (0-4) / Total Mankin Score (0-14): means ± SD
Experimental: as §1, §2, §3, §4

[5] = biological target: the molecule itself; assay: X-ray crystallography, co-crystals with Compound 1 or Compound 2, two LBD molecules per asymmetric unit
[6] = Compound 2, 0.1 mg/kg orally for 2 weeks from day 8 after CFA
[7] = Compound 2, 0.3 mg/kg orally for 2 weeks from day 8 after CFA
[8] = Compound 2, 1 mg/kg orally for 2 weeks from day 8 after CFA
[9] = all concentrations tested (down to 0.1 mg/kg)

C[C@@H]1c2cc(F)ccc2-c2ccccc2N1S(=O)(=O)c1ccc(O)cc1 [Compound 2, 4-[(8-Fluoro-6-methylphenanthridin-5(6H)-yl)sulfonyl]phenol]
Fibroplasia (0-3) [1, 6]: 1.75 ± 0.42 | Inflammatory Cells (0-3) [1, 6]: 1.83 ± 0.52 | Pannus (0-2) [1, 6]: 1.50 ± 0.84 | Synovial Structure (0-3) [1, 6]: 2.33 ± 0.75 | Total Synovitis Score (0-10) [1, 6]: 7.42 ± 2.25 | Fibroplasia (0-3) [1, 7]: 1.67 ± 0.26*t | Inflammatory Cells (0-3) [1, 7]: 1.25 ± 0.27 | Pannus (0-2) [1, 7]: 0.50 ± 0.84 | Synovial Structure (0-3) [1, 7]: 1.58 ± 0.38 | Total Synovitis Score (0-10) [1, 7]: 5.00 ± 1.30*#t | Fibroplasia (0-3) [1, 8]: 1.33 ± 0.41*t | Inflammatory Cells (0-3) [1, 8]: 1.17 ± 0.26 | Pannus (0-2) [1, 8]: 0.25 ± 0.42 | Synovial Structure (0-3) [1, 8]: 1.42 ± 0.38 | Total Synovitis Score (0-10) [1, 8]: 4.17 ± 1.21*#t | Overall synovitis score [1, 9]: significantly improved | Inhibition of paw edema [2]: > 30% | Paw swelling score (maximal score per day 12) ([3]; 0.3 mg/kg (first column so headed, c3) orally each day from Day 8, Day 8): 11.5 | Paw swelling score (maximal score per day 12) ([3]; 0.3 mg/kg (first column so headed, c3) orally each day from Day 8, Day 9): 9.8 | Paw swelling score (maximal score per day 12) ([3]; 0.3 mg/kg (first column so headed, c3) orally each day from Day 8, Day 10): 7.3 | Paw swelling score (maximal score per day 12) ([3]; 0.3 mg/kg (first column so headed, c3) orally each day from Day 8, Day 11): 7 | Paw swelling score (maximal score per day 12) ([3]; 0.3 mg/kg (first column so headed, c3) orally each day from Day 8, Day 12): 6.7 | Paw swelling score (maximal score per day 12) ([3]; 0.3 mg/kg (first column so headed, c3) orally each day from Day 8, Day 13): 3.7 | Paw swelling score (maximal score per day 12) ([3]; 0.3 mg/kg (first column so headed, c3) orally each day from Day 8, Day 14): 3 | Paw swelling score (maximal score per day 12) ([3]; 0.3 mg/kg (first column so headed, c3) orally each day from Day 8, Day 15): 3.7 | Paw swelling score (maximal score per day 12) ([3]; 0.3 mg/kg (first column so headed, c3) orally each day from Day 8, Day 16): 2.3 | Paw swelling score (maximal score per day 12) ([3]; 0.3 mg/kg (first column so headed, c3) orally each day from Day 8, Day 17): 2.3 | Paw swelling score (maximal score per day 12) ([3]; 0.3 mg/kg (first column so headed, c3) orally each day from Day 8, Day 18): 2.3 | Paw swelling score (maximal score per day 12) ([3]; 0.3 mg/kg (first column so headed, c3) orally each day from Day 8, Day 19): 2 | Paw swelling score (maximal score per day 12) ([3]; 0.3 mg/kg (first column so headed, c3) orally each day from Day 8, Day 20): 2 | Paw swelling score (maximal score per day 12) ([3]; 0.3 mg/kg (first column so headed, c3) orally each day from Day 8, Day 21): 1.7 | Paw swelling score (maximal score per day 12) ([3]; 0.3 mg/kg (first column so headed, c3) orally each day from Day 8, Day 22): 1.7 | Paw swelling score (maximal score per day 12) ([3]; 0.3 mg/kg (first column so headed, c3) orally each day from Day 8, Day 23): 1 | Paw swelling score (maximal score per day 12) ([3]; 0.3 mg/kg (first column so headed, c3) orally each day from Day 8, Day 24): 1.3 | Paw swelling score (maximal score per day 12) ([3]; 0.3 mg/kg (second column so headed, c4) orally each day from Day 8, Day 8): 11.3 | Paw swelling score (maximal score per day 12) ([3]; 0.3 mg/kg (second column so headed, c4) orally each day from Day 8, Day 9): 10.7 | Paw swelling score (maximal score per day 12) ([3]; 0.3 mg/kg (second column so headed, c4) orally each day from Day 8, Day 10): 9.3 | Paw swelling score (maximal score per day 12) ([3]; 0.3 mg/kg (second column so headed, c4) orally each day from Day 8, Day 11): 9.7 | Paw swelling score (maximal score per day 12) ([3]; 0.3 mg/kg (second column so headed, c4) orally each day from Day 8, Day 12): 10 | Paw swelling score (maximal score per day 12) ([3]; 0.3 mg/kg (second column so headed, c4) orally each day from Day 8, Day 13): 4.2 | Paw swelling score (maximal score per day 12) ([3]; 0.3 mg/kg (second column so headed, c4) orally each day from Day 8, Day 14): 3.5 | Paw swelling score (maximal score per day 12) ([3]; 0.3 mg/kg (second column so headed, c4) orally each day from Day 8, Day 15): 3.5 | Paw swelling score (maximal score per day 12) ([3]; 0.3 mg/kg (second column so headed, c4) orally each day from Day 8, Day 16): 3.3 | Paw swelling score (maximal score per day 12) ([3]; 0.3 mg/kg (second column so headed, c4) orally each day from Day 8, Day 17): 3.3 | Paw swelling score (maximal score per day 12) ([3]; 0.3 mg/kg (second column so headed, c4) orally each day from Day 8, Day 18): 3.3 | Paw swelling score (maximal score per day 12) ([3]; 0.3 mg/kg (second column so headed, c4) orally each day from Day 8, Day 19): 3 | Paw swelling score (maximal score per day 12) ([3]; 0.3 mg/kg (second column so headed, c4) orally each day from Day 8, Day 20): 2.8 | Paw swelling score (maximal score per day 12) ([3]; 0.3 mg/kg (second column so headed, c4) orally each day from Day 8, Day 21): 2.5 | Paw swelling score (maximal score per day 12) ([3]; 0.3 mg/kg (second column so headed, c4) orally each day from Day 8, Day 22): 2.5 | Paw swelling score (maximal score per day 12) ([3]; 0.3 mg/kg (second column so headed, c4) orally each day from Day 8, Day 23): 1.2 | Paw swelling score (maximal score per day 12) ([3]; 0.3 mg/kg (second column so headed, c4) orally each day from Day 8, Day 24): 1.3 | Paw swelling score (maximal score per day 12) ([3]; 1 mg/kg orally each day from Day 8, Day 8): 11.3 | Paw swelling score (maximal score per day 12) ([3]; 1 mg/kg orally each day from Day 8, Day 9): 8.8 | Paw swelling score (maximal score per day 12) ([3]; 1 mg/kg orally each day from Day 8, Day 10): 7 | Paw swelling score (maximal score per day 12) ([3]; 1 mg/kg orally each day from Day 8, Day 11): 6 | Paw swelling score (maximal score per day 12) ([3]; 1 mg/kg orally each day from Day 8, Day 12): 5 | Paw swelling score (maximal score per day 12) ([3]; 1 mg/kg orally each day from Day 8, Day 13): 1.7 | Paw swelling score (maximal score per day 12) ([3]; 1 mg/kg orally each day from Day 8, Day 14): 1.3 | Paw swelling score (maximal score per day 12) ([3]; 1 mg/kg orally each day from Day 8, Day 15): 1.3 | Paw swelling score (maximal score per day 12) ([3]; 1 mg/kg orally each day from Day 8, Day 16): 1.2 | Paw swelling score (maximal score per day 12) ([3]; 1 mg/kg orally each day from Day 8, Day 17): 1.2 | Paw swelling score (maximal score per day 12) ([3]; 1 mg/kg orally each day from Day 8, Day 18): 1.2 | Paw swelling score (maximal score per day 12) ([3]; 1 mg/kg orally each day from Day 8, Day 19): 1.2 | Paw swelling score (maximal score per day 12) ([3]; 1 mg/kg orally each day from Day 8, Day 20): 1.2 | Paw swelling score (maximal score per day 12) ([3]; 1 mg/kg orally each day from Day 8, Day 21): 1.2 | Paw swelling score (maximal score per day 12) ([3]; 1 mg/kg orally each day from Day 8, Day 22): 1.2 | Paw swelling score (maximal score per day 12) ([3]; 1 mg/kg orally each day from Day 8, Day 23): 1 | Paw swelling score (maximal score per day 12) ([3]; 1 mg/kg orally each day from Day 8, Day 24): 0.8 | Paw swelling and redness (joint scores) ([3]; following treatment, there appeared to be a dose response): Decreases | Tidemark Integrity (0-1) [4, 6]: 0 | Cartilage Cells (0-3) [4, 6]: 1.92 ± 0.21 | Cartilage Structure (0-6) [4, 6]: 2.33 ± 0.68 | Saffranin-O/Fast Green Staining (0-4) [4, 6]: 2.42 ± 0.67 | Total Mankin Score (0-14) [4, 6]: 6.83 ± 1.25 | Tidemark Integrity (0-1) [4, 7]: 0 | Cartilage Cells (0-3) [4, 7]: 1.50 ± 0.32 | Cartilage Structure (0-6) [4, 7]: 1.75 ± 0.42 | Saffranin-O/Fast Green Staining (0-4) [4, 7]: 2.17 ± 0.26 | Total Mankin Score (0-14) [4, 7]: 5.42 ± 0.74*t | Tidemark Integrity (0-1) [4, 8]: 0 | Cartilage Cells (0-3) [4, 8]: 1.17 ± 0.26*t | Cartilage Structure (0-6) [4, 8]: 1.25 ± 0.27 | Saffranin-O/Fast Green Staining (0-4) [4, 8]: 2.17 ± 0.26 | Total Mankin Score (0-14) [4, 8]: 4.58 ± 0.74*t | Overall cartilage score [4, 9]: significantly improved

B1: human estrogen receptor alpha ligand binding domain (ERalpha-LBD), carboxymethylated (receptor)
chain: SKKNSLALSLTADQMVSALLDAEPPILYSEYDPTRPFSEASMMGLLTNLADRELVHMINWAKRVPGFVDLTLHDQVHLLECAWLEILMIGLVWRSMEHPVKLLFAPNLLLDRNQGKCVEGMVEIFDMLLATSSRFRMMNLQGEEFVCLKSIILLNSGVYTFLSSTLKSLEEKDHIHRVLDKITDTLIHLMAKAGLTLQQQHQRLAQLLLILSHIRHMSNKGMEHLYSMKCKNVVPLYDLLLEMLDAHRLHAPTS
modifications: carboxymethylated with 5 mM iodoacetic acid while bound to the estradiol-affinity column; modified residues not stated
notes: also called human ERalpha-LBD; ERalpha-LBD (301-554)
binding result [5]: binds
